Ends that are not written are not given here.
Legend:
guinea pig complement = experiment: antibody dependent complement mediated hemolysis assay; format: biochemical; conditions: 1 ug/mL peptide added to guinea pig complement, titrated against turkey erythrocytes with hemolysin
Description: The peptides were synthesized by Fmoc solid phase method, purified on C18 reversa phase chromatography, tested by adding each peptide to and screened for complement inhibitory activity, in a simple antibody dependent hemolysis system in which 1 ug/mL of peptides were added to guinea pig complement, and were titrated against turkey erythrocytes mixed with hemolysin, a complement fixing anti-erythrocyte antibody solution. In the presence the peptides, the hemolythic activity of the complement was reduced, and the corresponding dilutions was determined. The inhibition was estimated by a formula: Inhibition (%)=100−(dilution of sample titer*100)/dilution of control

endothelin receptor = molecular target: T1, endothelin receptor (Canis lupus familiaris, UniProt Q5KSU9); experiment: iv ET-1 injection in dogs pretreated with peptide; format: in vivo
T1 construct: from tissue; host or cells: whole animal (dog), in vivo
T1 sequence (Q5KSU9 21-426): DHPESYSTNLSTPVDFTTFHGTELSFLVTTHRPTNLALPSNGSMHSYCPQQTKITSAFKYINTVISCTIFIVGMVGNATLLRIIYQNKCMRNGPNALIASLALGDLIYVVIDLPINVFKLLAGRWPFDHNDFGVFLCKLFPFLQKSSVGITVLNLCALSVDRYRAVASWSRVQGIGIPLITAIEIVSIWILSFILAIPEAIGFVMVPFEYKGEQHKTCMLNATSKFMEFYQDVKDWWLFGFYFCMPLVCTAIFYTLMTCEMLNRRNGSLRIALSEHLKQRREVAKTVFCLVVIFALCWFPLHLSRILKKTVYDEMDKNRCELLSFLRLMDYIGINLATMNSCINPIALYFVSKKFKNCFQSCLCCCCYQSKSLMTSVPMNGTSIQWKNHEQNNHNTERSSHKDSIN
Description: One of the peptides was subsequently tested in dogs and confirmed its biological effect in vivo. […] The elevated ET-1 level was marked with profound changes in circulation (details to be published elsewhere). However, pretreatment of dogs with 100 ug/kg ETR-P1/fl peptide removed the cardiovascular effects of injected ET-1 peptide from the circulation within 10 min and the measured endothelin level become normal. […] It is known in the previous art and has been patented and the patent expired.

C5a receptor = molecular target: T2, C5a receptor (Homo sapiens, UniProt P21730); experiment: C5a-induced Ca++ influx in C5a receptor-expressing U937 cells; format: cell-based
T2 construct: U937 cells bearing the C5a receptor were preincubated with this peptide; endogenous in cells; host or cells: U937 cells, cAMP stimulated
T2 sequence (P21730 1-350): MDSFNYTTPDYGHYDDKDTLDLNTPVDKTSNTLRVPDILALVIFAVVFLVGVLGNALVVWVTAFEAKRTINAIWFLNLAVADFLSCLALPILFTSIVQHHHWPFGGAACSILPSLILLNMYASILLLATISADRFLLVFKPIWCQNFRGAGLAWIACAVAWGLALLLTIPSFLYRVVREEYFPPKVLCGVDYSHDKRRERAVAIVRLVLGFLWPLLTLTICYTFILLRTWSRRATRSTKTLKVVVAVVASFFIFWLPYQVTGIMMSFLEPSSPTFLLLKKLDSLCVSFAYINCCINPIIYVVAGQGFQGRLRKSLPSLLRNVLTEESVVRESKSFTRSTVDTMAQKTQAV
Description: It was shown by its ability to inhibit Ca^++ influx induced by C5a anaphylatoxin in C5a receptor-expressing (cAMP stimulated) U937 cells.
(§1) Particularly, it is shown the IC50 achieved at pM levels. […] In addition, in the membrane bound state the peptide remains active for at least 12 hours. Therefore, it is a very effective C5aR inhibitor.

C5a anaphylatoxin = experiment: binding of AHB peptide to antisense peptides derived from C5a; conditions: C5a amino acids 37-43 and 61-74
C5aR = molecular target: T3, C5aR (Homo sapiens, UniProt P21730); experiment: persistence of activity of erythrocyte membrane bound peptide; conditions: erythrocyte membrane bound state
T3 construct: endogenous in cells; host or cells: 'C5aR bearing cells', not specified
T3 sequence (P21730 1-350): T2 sequence (P21730 1-350)
Description: The activity in vivo, in rat and pig models, is shown in the examples below. Further, it has been shown that the peptide can be delivered in vivo very safely, even at very high concentration. […] In addition, in the membrane bound state, the peptide remains active for at least 12 hours. Therefore, it is a very effective C5aR inhibitor.
as §1

| Substance | Hemolysis inhibition (% of maximum) (guinea pig complement) | further results |
| --- | --- | --- |
| LTAYVVKVFSLA [LTA1309, LTAYVVKVFSLA] | >80% |  |
| LNLCALSVDRYRAVASWSRVI (Endothelin A receptor targeting inhibitor LNL2390) [ETR-P1/fl] |  | measured endothelin level after injected ET-1 (endothelin receptor; dogs, pretreatment 100 ug/kg): become normal; time to removal of cardiovascular effects of injected ET-1 (endothelin receptor; dogs, pretreatment 100 ug/kg, iv ET-1): ≤ 10 min; decrease of normal baseline level of ET peptide in plasma (endothelin receptor; dogs, transient): 30-50%; increase of ET-1 binding capacity of the endothelin receptor (endothelin receptor; receptor frozen in inactive conformation): 4 times |
| KRPQDAKNT [KRP1057, KRPQDAKNT] | >20-40% |  |
| QKKIEEIAAKYKHS (PL3-AHB peptide derived from C5a anaphylatoxin) |  | inhibition of C5a receptor activity / C5a-induced Ca++ influx (C5a receptor): not able to inhibit |
| ERLGREGVQ [ERL1041, ERLGREGVQ] | >20-40% |  |
| LRTWSRRATRSTKTLKVV (Complement factor 5a receptor targeting inhibitor LRT2463) [PR226] |  | biphasic activity on C5a receptor (C5a receptor): inhibitor at high concentration and activator as low concentration |
| DYGHYDDKDTLDLNTPVD (Complement factor 5a receptor targeting inhibitor DYG2094) [PR10] |  | inhibition of C5a receptor activity / C5a-induced Ca++ influx (C5a receptor): did not inhibit the receptor activity; binding to antisense peptides derived from C5a anaphylatoxin (C5a anaphylatoxin): bound to two of its corresponding antisense peptides |
| ESASLRSEETKV [ESA1331, ESASLRSEETKV] | >20-40% |  |
| HWPFGGAACSILPSLI (Complement factor 5a receptor targeting inhibitor HWP1667) [PR101] |  | inhibition of C5a receptor activity / C5a-induced Ca++ influx (C5a receptor): did not affect the C5a-induced Ca^++ influx |
| IAVHYLDETEQW [IAV1501, IAVHYLDETEQW] | ≤20% |  |
| LHLSVRTLELRP [LHL1431, LHLSVRTLELRP] | >40-60% |  |
| SDKKGICVADPFEVT [SDK1606, SDKKGICVADPFEVT] | >80% |  |
| APNHLLEVRV [AP1314, APNHLLEVRV] | >80% |  |
| LNCQRYYGGGGYST [LNC1538, LNCQRYYGGGGYST] | >20-40% |  |
| LRANISHKDMQLGR (PL61-AHB peptide derived from C5a anaphylatoxin) |  | inhibition of C5a receptor activity / C5a-induced Ca++ influx (C5a receptor): not able to inhibit |
| QALPYSTVGNSNL [QAL1363, QALPYSTVGNSNL] | >40-60% |  |
| QRSYTVAIA [QRS1008, QRSYTVAIA] | >40-60% |  |
| (LRTWSRRATRSTKTLKVV)8K4K2KV [PR226MAP] |  | time the peptide remains active (C5aR): at least 12 hours; concentration of complete inhibition of C5a triggered Ca influx (C5a receptor; FIG. 2): 200 pM; concentration level at which C5a triggered Ca influx is inhibited (C5a receptor; serial dilution): femtomolar concentration levels; IC50 (C5a receptor; serial dilution, FIG. 2, read-out: IC50 of C5a triggered Ca influx): 1 pM |
| SDAGLTFTSS [SDA984, SDAGLTFTSS] | >80% |  |
| LSRKVLLDGV [LSR1099, LSRKVLLDGV] | >20-40% |  |
| VQAERSGIPIVTSPYQI [VQA1857, VQAERSGIPIVTSPYQI] | >80% |  |
| DDLKQLANGVDRYI [DDL1619, DDLKQLANGVDRYI] | >80% |  |
| KYKHSVVKKSDGA (PL12-AHB peptide derived from C5a anaphylatoxin) |  | inhibition of C5a receptor activity / C5a-induced Ca++ influx (C5a receptor): not able to inhibit |
| NIFLKDSITTWE [NIF1464, NIFLKDSITTWE] | >40-60% |  |
| LRLPYVVREQL [LRL1384, LRLPYVVREQL] | ≤20% |  |
| GQWKIRAYYENS [GQW1513, GQWKIRAYYENS] | ≤20% |  |
| TAYVVKVFSLAVN [TAY1409, TAYVVKVFSLAVN] | ≤20% |  |
| RAARISLGPRSIKAFTE (PL37-AHB peptide derived from C5a anaphylatoxin) |  | inhibition of C5a receptor activity / C5a-induced Ca++ influx (C5a receptor): not able to inhibit |

— US11918624B2, “Therapeutic composition for use in the treatment of COVID-19 and other cytokine storm associated disorders” (priority 2020, dated 2024)
